Test systems include DLD-1; DMS-273; KM-20L2; LXFL 529; RXF 631; SNB-78; HOP-18; XF498; DMS-114.
Common to all, as to assay: NCI anticancer screen, dose series, 48 h

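The compound was tested at five concentrations on cells cultured in 96-well plates, with a 48-hour exposure period. GI50: concentration for 50% inhibition of growth.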 Activity calls are given as the source filed them. Cut-off read from the data, not from the text of the source: active = GI50 up to about 1.1 µM and inactive = higher.

For the compound `CCOC(=O)C1=C(Nc2ccccc2)SCC1=O`, the GI50 with DLD-1, in the test with DMS-273, in the test on KM-20L2, in the test on LXFL 529, in the test on RXF 631 and in the test on SNB-78 was > 100 µM (inactive) each time.
In the case of `CC(C)(C)C(=O)ON1N=NC2C3CC(OCc4ccccc4)(OCc4ccccc4)C(O3)C21` (configuration not stated), the GI50 in the test with DLD-1 was 15.6 µM (inactive); in the test on DMS-273 it was 22.3 µM (inactive); in the test with HOP-18, 24.2 µM (inactive); with KM-20L2 it was 28.4 µM (inactive); in the test with LXFL 529, 11.1 µM (inactive); with RXF 631, 24.7 µM (inactive). Besides, the GI50 with SNB-78 is 26 µM (inactive); in the test on XF498 it was 18.9 µM (inactive).
Turning to `O=Cc1ccccc1OCCOc1cc(OCCOc2ccccc2C=O)c(OCCOc2ccccc2C=O)cc1OCCOc1ccccc1C=O`, the GI50 in the test on DLD-1 is 40.7 µM (inactive); in the test on DMS-114 it was 47.3 µM (inactive); in the test on DMS-273, 52.2 µM (inactive); in the test with HOP-18, > 49.4 µM (inactive); in the test on KM-20L2 it was > 100 µM (inactive); with LXFL 529 it was 33.7 µM (inactive). In addition, the GI50 in the test on SNB-78 was 45.1 µM (inactive); with XF498, > 39.1 µM (inactive).
In the case of `N#CC(C(=O)CCC(=O)Nc1cccc(C(F)(F)F)c1)c1ccccc1` (configuration not stated), the GI50 in the test with DLD-1, in the test with DMS-114, with DMS-273, in the test with KM-20L2, with LXFL 529 and in the test on SNB-78 was > 100 µM (inactive) throughout. Besides, the GI50 in the test with XF498 was > 100 µM (inactive).
As to `CCC/C=C1\CCC(CN(C)C)C1=O` (configuration not stated), the GI50 with DLD-1 was 2.38 µM (inactive); in the test with DMS-114, 15.6 µM (inactive); with DMS-273 it was 11.9 µM (inactive); with HOP-18 it was 23.4 µM (inactive); in the test on KM-20L2, 10.3 µM (inactive); in the test with LXFL 529, 1.82 µM (inactive). In addition, the GI50 in the test with XF498 is 5.57 µM (inactive).
As for `COc1cc(/C=C/c2csnn2)cc(OC)c1OC`, the GI50 in the test with DLD-1, in the test on DMS-114, with HOP-18, in the test on LXFL 529, in the test on SNB-78 and in the test on XF498 was > 100 µM (inactive) throughout.
Consider `CCN(CC)C(=O)Cc1[nH][nH]c(=O)c1C(=O)N(CC)CC`, for which the GI50 with DLD-1, in the test with DMS-114, in the test with DMS-273, in the test with HOP-18, in the test with KM-20L2 and in the test with LXFL 529 was > 100 µM (inactive) each time. For the same compound, the GI50 in the test on SNB-78 and in the test with XF498 was > 100 µM (inactive) each time.
Consider `CC(=O)CC(=O)/C=C/c1cccs1`, for which the GI50 in the test with DLD-1 was 44 µM (inactive); in the test with DMS-114, 59.4 µM (inactive); in the test with KM-20L2, 98.6 µM (inactive); in the test on LXFL 529, 85.3 µM (inactive).
For the compound `O=C(O)/C=C/c1nc2ccccc2c(=O)o1`, the GI50 in the test on DLD-1, in the test with DMS-114, with DMS-273, with HOP-18, in the test with KM-20L2 and with LXFL 529 was > 100 µM (inactive) in each case. Besides, the GI50 with SNB-78 is > 100 µM (inactive).
Consider `Cc1nc(C(N)=S)sc1C(=O)CC(=O)C(=O)Nc1c(C(C)C)cccc1C(C)C`, for which the GI50 in the test on DLD-1 was 55.2 µM (inactive); in the test on DMS-114, 26.7 µM (inactive); in the test on HOP-18, 35.9 µM (inactive); in the test on KM-20L2, 41.3 µM (inactive); with LXFL 529 it was 52 µM (inactive); with SNB-78 it was 66.2 µM (inactive). Moreover, in the test with XF498, the GI50 is 24.5 µM (inactive).
As to `CN(C)CCNC(=O)c1cccc2nc3ccc4cccnc4c3nc12`, the GI50 is 0.24 µM (active) in the test on DLD-1; 0.533 µM (active) with DMS-114; 0.118 µM (active) in the test with DMS-273; 1.78 µM (inactive) in the test with HOP-18; 0.132 µM (active) with RXF 631; 0.482 µM (active) in the test with SNB-78.
For the compound `CN(C)CCNC(=O)c1cc([N+](=O)[O-])cc2ccc(-c3ccccc3)nc12`, the GI50 in the test with DLD-1 is 9.2 µM (inactive); with DMS-114, 7.16 µM (inactive); with DMS-273, 5.62 µM (inactive); with HOP-18, 4.97 µM (inactive); with KM-20L2, 6.46 µM (inactive); in the test on LXFL 529 it was 18.3 µM (inactive). For the same compound, the figures for the GI50 in the test with SNB-78 and in the test on XF498 were 17.8 µM (inactive) and 7.19 µM (inactive), respectively.
In the case of `c1ccc(C2=NOC3C4CCC(C4)C23)cc1` (configuration not stated), the GI50 in the test on DLD-1, in the test with DMS-114, in the test with DMS-273, in the test on HOP-18, in the test with LXFL 529 and in the test with SNB-78 was > 100 µM (inactive) throughout.
For the compound `O=C(CC1(O)C(=O)Nc2ccccc21)c1ccc(O)cc1O` (configuration not stated), the GI50 in the test with DLD-1, with DMS-114, in the test on DMS-273, in the test on KM-20L2, in the test on LXFL 529 and with SNB-78 was > 100 µM (inactive) in each case. In addition, in the test with XF498, the GI50 was > 100 µM (inactive).
On to `CC(=O)NC(CCCCN(Cc1ccccc1)C(=O)NCCCl)C(=O)NCc1ccccc1` (configuration not stated), for which the GI50 in the test with DLD-1 was > 100 µM (inactive); with DMS-114 it was > 100 µM (inactive); in the test on DMS-273, > 100 µM (inactive); in the test with HOP-18, 29.1 µM (inactive); in the test on KM-20L2 it was > 100 µM (inactive); with LXFL 529, > 100 µM (inactive). Further, the GI50 in the test on RXF 631 is > 100 µM (inactive).
Turning to `Nc1ncnc2c1ncn2C1CC(OC2CCCCO2)C(CO)O1` (configuration not stated), the GI50 in the test with DLD-1, with DMS-114, in the test on DMS-273, with HOP-18, with KM-20L2 and in the test with LXFL 529 was > 100 µM (inactive) each time. Besides, the GI50 in the test with SNB-78 and in the test on XF498 was > 100 µM (inactive) throughout.
For `O=C1Nc2cc([N+](=O)[O-])c(Br)cc2C1=O`, the GI50 in the test with DLD-1 is 22.2 µM (inactive); with DMS-114 it was 17.5 µM (inactive); with DMS-273 it was 20.1 µM (inactive); in the test on KM-20L2, 15.3 µM (inactive); in the test with RXF 631 it was 18.5 µM (inactive); in the test with SNB-78 it was 23.3 µM (inactive). Further, the GI50 with XF498 was 12.1 µM (inactive).
As for `CCOC(=O)CN1C(=O)c2cccc3cc([N+](=O)[O-])cc(c23)C1=O`, the GI50 with DLD-1 was 2.21 µM (inactive); with DMS-114, 2.28 µM (inactive); with HOP-18, 19.7 µM (inactive); with KM-20L2, 13.3 µM (inactive); with LXFL 529 it was 1.71 µM (inactive); in the test on SNB-78 it was 5.82 µM (inactive). Moreover, the GI50 in the test on XF498 is 2.03 µM (inactive).
Turning to `COC(=O)/C(=N/NC(N)=O)C(C(=O)OC)C(=O)C(=O)Nc1ccc(Cl)cc1` (configuration not stated), the GI50 with DLD-1 is > 100 µM (inactive); in the test on DMS-114, > 71.8 µM (inactive); in the test on DMS-273, > 100 µM (inactive); in the test with HOP-18, > 100 µM (inactive); in the test on KM-20L2 it was > 100 µM (inactive); with LXFL 529 it was > 100 µM (inactive). Besides, the GI50 with XF498 is > 100 µM (inactive).
`CCOc1cccc2c1N[S@@](=O)S2`: the GI50 is > 100 µM (inactive) with DLD-1; > 100 µM (inactive) in the test with DMS-273; > 100 µM (inactive) in the test with KM-20L2; 58.7 µM (inactive) in the test with LXFL 529; > 100 µM (inactive) with RXF 631; > 100 µM (inactive) in the test on SNB-78. For the same compound, the GI50 in the test with XF498 is 78.7 µM (inactive).
Turning to `Cc1c2cc[n+](COC(=O)c3ccccc3)cc2c(C)c2c1[nH]c1ccccc12`, the GI50 with DMS-114 is 0.75 µM (active); with HOP-18, < 0.01 µM (active); with KM-20L2, 0.641 µM (active); with LXFL 529, 0.506 µM (active); in the test with SNB-78 it was 1.32 µM (inactive); in the test with XF498, 1.62 µM (inactive).
Consider `O=c1cc(-c2ccccc2)[nH]c2cc(F)cc(F)c12`, for which the GI50 was 28.5 µM (inactive) with DLD-1; 24.7 µM (inactive) in the test on DMS-114; 10.3 µM (inactive) with DMS-273; 43 µM (inactive) in the test on HOP-18; 53.6 µM (inactive) with LXFL 529.
As for `O=C(Nc1cccc(Cl)c1)C(=O)C(C(=O)c1ccc2ccccc2c1)C1OC(=O)c2ccccc21` (configuration not stated), the GI50 in the test on DLD-1 was 16.3 µM (inactive); in the test on DMS-114, 11.5 µM (inactive); in the test with DMS-273, 24.7 µM (inactive); in the test with HOP-18, 12.1 µM (inactive); with KM-20L2 it was 33.7 µM (inactive); in the test with LXFL 529, 7.48 µM (inactive). Besides, the GI50 with RXF 631 is 16.9 µM (inactive); in the test with SNB-78 it was 5.9 µM (inactive).
`CN[C@@H](C)[C@H](N)c1ccccc1`: the GI50 in the test with DLD-1, with DMS-273, in the test with HOP-18, in the test on LXFL 529, with RXF 631 and in the test on SNB-78 was > 100 µM (inactive) each time.
`CCCCCCCCCC(=O)OCC1OC(n2cc(F)c(=O)[nH]c2=O)C(N)C(OC(=O)CCCCCCCCC)C1O` (configuration not stated): the GI50 in the test on DMS-114 was 15.7 µM (inactive); in the test with DMS-273 it was 20.4 µM (inactive); with KM-20L2 it was 19 µM (inactive); with LXFL 529 it was 16.6 µM (inactive); in the test on SNB-78, 15.8 µM (inactive).
With `COc1cccc2c1C(=O)c1c(O)c3c(c(O)c1C2=O)C[C@@](O)(C(=O)CO)CC3OC1CC(N)C(OC2CCCCO2)C(C)O1` (some centres not stated), the GI50 was 1.82 µM (inactive) in the test on DLD-1; 0.308 µM (active) with DMS-273; 0.0977 µM (active) in the test on HOP-18; 0.561 µM (active) in the test on KM-20L2; 0.668 µM (active) in the test with LXFL 529; 1.5 µM (inactive) in the test on SNB-78. Besides, the GI50 in the test on XF498 is 0.54 µM (active).
As to `CC(=O)NC1=C(C)C(=O)c2c(nc3n2CCC3O)C1=N` (configuration not stated), the GI50 in the test on DLD-1 was 11.6 µM (inactive); in the test on DMS-114, 3.4 µM (inactive); with DMS-273 it was 17.8 µM (inactive); in the test on HOP-18 it was 17.6 µM (inactive); in the test with KM-20L2, 19.5 µM (inactive); in the test on SNB-78, 3.05 µM (inactive). Besides, in the test on XF498, the GI50 is 3.81 µM (inactive).

(Values after ChEMBL document CHEMBL1201862, “PubChem BioAssay data set” (2004).)
